Experimental data: ChEMBL document CHEMBL3046609, “Herbicidal properties of the thaxtomin group of phytotoxins” (2001)
Activity calls are given as the source filed them. The rule behind the calls is not given here.

How the values were obtained:
[1] = test system: Ipomoea hederacea; experiment: Post-emergence herbicidal activity against Ipomoea hederacea (ivy-leaved morning glory) assessed as wilting at 0.5 to 4 kg/ha after 9 days; format: functional, organism-based
[2] = test system: Agrostis stolonifera var. palustris; experiment: Herbicidal activity against Agrostis stolonifera var. palustris assessed as stunting after 9 days by agarose-based test; format: functional, organism-based
[3] = test system: Abutilon theophrasti; experiment: Herbicidal activity against Abutilon theophrasti (velvetleaf) assessed as visual injury at 10 ug/seedling applied to meristem after 1 week relative to control; format: functional
[4] = test system: Agrostis stolonifera var. palustris; experiment: Herbicidal activity against Agrostis stolonifera var. palustris assessed as visual injury at 0.008 ppm after 9 days relative to control; format: functional
[5] = test system: Helianthus annuus; experiment: Herbicidal activity against Helianthus annuus (sunflower) assessed as visual injury at 10 ug/seedling applied to meristem after 1 week relative to control; format: functional
[6] = test system: Ipomoea hederacea; experiment: Pre-emergence herbicidal activity against Ipomoea hederacea (ivy-leaved morning glory) assessed as visual injury at 2 kg/ha after 16 days relative to control; format: functional
[7] = test system: Ipomoea hederacea; experiment: Pre-emergence herbicidal activity against Ipomoea hederacea (ivy-leaved morning glory) assessed as visual injury at 0.5 kg/ha after 16 days relative to control; format: functional
[8] = test system: Ipomoea hederacea; experiment: Herbicidal activity against Ipomoea hederacea (ivy-leaved morning glory) assessed as visual injury at 10 ug/seedling applied to cotyledon after 1 week relative to control; format: functional
[9] = test system: Avena fatua; experiment: Pre-emergence growth inhibition of Avena fatua assessed as visual injury at 2 kg/ha after 16 days relative to control; format: functional; parameters: scale not given: the % may be the effect or the level left
[10] = test system: Helianthus annuus; experiment: Post-emergence growth inhibition of Helianthus annuus (sunflower) assessed as visual injury at 2 kg/ha after 9 days relative to control; format: functional; parameters: scale not given: the % may be the effect or the level left
[11] = test system: Echinochloa crus-galli; experiment: Post-emergence herbicidal activity against Echinochloa crus-galli (barnyard grass) assessed as wilting at 0.5 to 4 kg/ha after 9 days; format: functional, organism-based
[12] = test system: Agrostis stolonifera var. palustris; experiment: Herbicidal activity against Agrostis stolonifera var. palustris assessed as visual injury at 1 ppm after 9 days relative to control; format: functional
[13] = test system: Echinochloa crus-galli; experiment: Pre-emergence herbicidal activity against Echinochloa crus-galli (barnyard grass) assessed as visual injury at 2 kg/ha after 16 days relative to control; format: functional
[14] = test system: Helianthus annuus; experiment: Post-emergence growth inhibition of Helianthus annuus (sunflower) after 9 days; format: functional
[15] = test system: Ipomoea hederacea; experiment: Post-emergence herbicidal activity against Ipomoea hederacea (ivy-leaved morning glory) after 9 days; format: functional
[16] = test system: Ipomoea hederacea; experiment: Herbicidal activity against Ipomoea hederacea (ivy-leaved morning glory) assessed as visual injury at 10 ug/seedling applied to meristem after 1 week relative to control; format: functional
[17] = test system: Echinochloa crus-galli; experiment: Post-emergence herbicidal activity against Echinochloa crus-galli (barnyard grass) after 9 days; format: functional
[18] = test system: Abutilon theophrasti; experiment: Herbicidal activity against Abutilon theophrasti (velvetleaf) assessed as visual injury at 1 ug/seedling applied to meristem after 1 week relative to control; format: functional
[19] = test system: Lemna minor; experiment: Herbicidal activity against Lemna minor (common duckweed) assessed as visual injury at 25 ppm after 9 days relative to control; format: functional
[20] = test system: Helianthus annuus; experiment: Pre-emergence growth inhibition of Helianthus annuus (sunflower) after 16 days; format: functional
[21] = test system: Arabidopsis thaliana; experiment: Growth inhibition of Arabidopsis thaliana var. Columbia after 9 days by agarose-based test; format: functional
[22] = test system: Avena fatua; experiment: Post-emergence growth inhibition of Avena fatua assessed as wilting at 0.5 to 4 kg/ha after 9 days; format: functional, organism-based
[23] = test system: Helianthus annuus; experiment: Pre-emergence growth inhibition of Helianthus annuus (sunflower) assessed as visual injury at 0.5 kg/ha after 16 days relative to control; format: functional; parameters: scale not given: the % may be the effect or the level left
[24] = test system: Abutilon theophrasti; experiment: Herbicidal activity against Abutilon theophrasti (velvetleaf) assessed as visual injury at 100 ug/seedling applied to leaf after 1 week relative to control; format: functional
[25] = test system: Helianthus annuus; experiment: Herbicidal activity against Helianthus annuus (sunflower) assessed as visual injury at 1 ug/seedling applied to cotyledon after 1 week relative to control; format: functional
[26] = test system: Lemna minor; experiment: Herbicidal activity against Lemna minor (common duckweed) assessed as visual injury at 5 ppm after 9 days relative to control; format: functional
[27] = test system: Ipomoea hederacea; experiment: Pre-emergence herbicidal activity against Ipomoea hederacea (ivy-leaved morning glory) assessed as stunting at 0.5 to 4 kg/ha after 16 days; format: functional, organism-based
[28] = test system: Lemna minor; experiment: Herbicidal activity against Lemna minor (common duckweed) assessed as visual injury at 0.008 ppm after 9 days relative to control; format: functional
[29] = test system: Ipomoea hederacea; experiment: Post-emergence herbicidal activity against Ipomoea hederacea (ivy-leaved morning glory) assessed as meristematic at 0.5 to 4 kg/ha after 9 days; format: functional, organism-based
[30] = test system: Ipomoea hederacea; experiment: Pre-emergence herbicidal activity against Ipomoea hederacea (ivy-leaved morning glory) assessed as visual injury at 4 kg/ha after 16 days relative to control; format: functional
[31] = test system: Ipomoea hederacea; experiment: Pre-emergence herbicidal activity against Ipomoea hederacea (ivy-leaved morning glory) after 16 days; format: functional
[32] = test system: Echinochloa crus-galli; experiment: Post-emergence herbicidal activity against Echinochloa crus-galli (barnyard grass) assessed as meristematic at 0.5 to 4 kg/ha after 9 days; format: functional, organism-based
[33] = test system: Ipomoea hederacea; experiment: Post-emergence herbicidal activity against Ipomoea hederacea (ivy-leaved morning glory) assessed as visual injury at 2 kg/ha after 9 days relative to control; format: functional
[34] = test system: Abutilon theophrasti; experiment: Herbicidal activity against Abutilon theophrasti (velvetleaf) assessed as visual injury at 10 ug/seedling applied to leaf after 1 week relative to control; format: functional
[35] = test system: Echinochloa crus-galli; experiment: Pre-emergence herbicidal activity against Echinochloa crus-galli (barnyard grass) assessed as visual injury at 0.5 kg/ha after 16 days relative to control; format: functional
[36] = test system: Ipomoea hederacea; experiment: Herbicidal activity against Ipomoea hederacea (ivy-leaved morning glory) assessed as visual injury at 100 ug/seedling applied to meristem after 1 week relative to control; format: functional
[37] = test system: Avena fatua; experiment: Post-emergence growth inhibition of Avena fatua assessed as visual injury at 1 kg/ha after 9 days relative to control; format: functional; parameters: scale not given: the % may be the effect or the level left
[38] = test system: Avena fatua; experiment: Post-emergence growth inhibition of Avena fatua assessed as meristematic at 0.5 to 4 kg/ha after 9 days; format: functional, organism-based
[39] = test system: Agrostis stolonifera var. palustris; experiment: Herbicidal activity against Agrostis stolonifera var. palustris assessed as visual injury at 0.2 ppm after 9 days relative to control; format: functional
[40] = test system: Helianthus annuus; experiment: Pre-emergence growth inhibition of Helianthus annuus (sunflower) assessed as visual injury at 1 kg/ha after 16 days relative to control; format: functional; parameters: scale not given: the % may be the effect or the level left
[41] = test system: Helianthus annuus; experiment: Herbicidal activity against Helianthus annuus (sunflower) assessed as visual injury at 100 ug/seedling applied to meristem after 1 week relative to control; format: functional
[42] = test system: Avena fatua; experiment: Post-emergence growth inhibition of Avena fatua assessed as stunting at 0.5 to 4 kg/ha after 9 days; format: functional, organism-based
[43] = test system: Helianthus annuus; experiment: Post-emergence growth inhibition of Helianthus annuus (sunflower) assessed as stunting at 0.5 to 4 kg/ha after 9 days; format: functional, organism-based
[44] = test system: Echinochloa crus-galli; experiment: Pre-emergence herbicidal activity against Echinochloa crus-galli (barnyard grass) after 16 days; format: functional
[45] = test system: Echinochloa crus-galli; experiment: Pre-emergence herbicidal activity against Echinochloa crus-galli (barnyard grass) assessed as stunting at 0.5 to 4 kg/ha after 16 days; format: functional, organism-based
[46] = test system: Ipomoea hederacea; experiment: Post-emergence herbicidal activity against Ipomoea hederacea (ivy-leaved morning glory) assessed as visual injury at 0.5 kg/ha after 9 days relative to control; format: functional
[47] = test system: Echinochloa crus-galli; experiment: Post-emergence herbicidal activity against Echinochloa crus-galli (barnyard grass) assessed as visual injury at 4 kg/ha after 9 days relative to control; format: functional
[48] = test system: Helianthus annuus; experiment: Post-emergence growth inhibition of Helianthus annuus (sunflower) assessed as visual injury at 0.5 kg/ha after 9 days relative to control; format: functional; parameters: scale not given: the % may be the effect or the level left
[49] = test system: Agrostis stolonifera var. palustris; experiment: Herbicidal activity against Agrostis stolonifera var. palustris assessed as visual injury at 0.04 ppm after 9 days relative to control; format: functional

Compound: CN1C(=O)[C@](O)(Cc2cccc(O)c2)N(C)C(=O)[C@@H]1Cc1c[nH]c2cccc([N+](=O)[O-])c12 [THAXTOMIN A]
- Activity [1]: Active
- Activity [2]: Active
- Activity [3]: 75%
- Activity [4]: 50%
- Activity [5]: 90%
- Activity [6]: 100%
- Activity [7]: 100%
- Activity [8]: 0%
- Activity [9]: 100%
- Activity [10]: 85%
- Activity [11]: Active
- Activity [12]: 100%
- Activity [13]: 100%
- GR50 [14]: <500 g/ha
- GR50 [15]: <500 g/ha
- Activity [16]: 80%
- GR50 [17]: 2 kg/ha
- Activity [18]: 20%
- Activity [19]: 100%
- GR50 [20]: <500 g/ha
- I50 [21]: 10 ppb
- Activity [22]: Active
- Activity [23]: 70%
- Activity [24]: 0%
- Activity [25]: 0%
- Activity [26]: 100%
- Activity [27]: Active
- Activity [28]: 30%
- Activity [29]: Active
- Activity [30]: 100%
- GR50 [31]: <500 g/ha
- Activity [32]: Active
- Activity [33]: 80%
- Activity [34]: 0%
- Activity [35]: 98%
- Activity [36]: 80%
- Activity [37]: 30%
- Activity [38]: Active
- Activity [39]: 100%
- Activity [40]: 100%
- Activity [41]: 90%
- Activity [42]: Active
- Activity [43]: Active
- GR50 [44]: <500 g/ha
- Activity [45]: Active
- Activity [46]: 70%
- Activity [47]: 85%
- Activity [48]: 75%
- Activity [49]: 80%
